According to PubChem BioAssay AID248 (DTP/NCI, 2004):
Several values for one entry are separate records, joined by “and”; a condition that tells them apart may be missing. Equal entries are not always repeated. Toxic doses and inconclusive results are not listed. No stated cut-off is given here; in the data, active means T/C of 150% or more; inactive means T/C below 125%.

Test system: L1210 leukemia ip in BDF1 mice, survival T/C
Experiment: NCI In Vivo Anticancer Drug Screen. Data for tumor model L1210 Leukemia (intraperitoneal) in B6D2F1 (BDF1) mice
Details: endpoint: mean survival time, higher = longer survival
How it was run: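 Tumor cells were implanted, animals were treated, and survival was followed. The result divides the treated measurement by the vehicle-control measurement.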

[1] = dose: 50.0 mg/kg/injection, schedule: Q01DX009 (ip), vehicle: saline
[2] = dose: 50.0 mg/kg/injection, schedule: Q04DX003 (ip), vehicle: saline
[3] = dose: 100.0 mg/kg/injection, schedule: Q01DX001 (ip), vehicle: saline
[4] = dose: 100.0 mg/kg/injection, schedule: Q01DX009 (ip), vehicle: saline
[5] = dose: 100.0 mg/kg/injection, schedule: Q04DX003 (ip), vehicle: saline
[6] = dose: 200.0 mg/kg/injection, schedule: Q01DX001 (ip), vehicle: saline
[7] = dose: 200.0 mg/kg/injection, schedule: Q04DX003 (ip), vehicle: saline
[8] = dose: 100.0 mg/kg/injection, schedule: Q04DX003 (ip), vehicle: saline with Tween-80
[9] = dose: 200.0 mg/kg/injection, schedule: Q04DX003 (ip), vehicle: saline with Tween-80
[10] = dose: 400.0 mg/kg/injection, schedule: Q04DX003 (ip), vehicle: saline with Tween-80
[11] = dose: 100.0 mg/kg/injection, schedule: Q01DX001 (ip), vehicle: Klucel (hydroxypropylcellulose) (HPC)
[12] = dose: 200.0 mg/kg/injection, schedule: Q01DX001 (ip), vehicle: Klucel (hydroxypropylcellulose) (HPC)
[13] = dose: 400.0 mg/kg/injection, schedule: Q01DX001 (ip), vehicle: Klucel (hydroxypropylcellulose) (HPC)
[14] = dose: 15.0 mg/kg/injection, schedule: Q01DX Z (ip), vehicle: carboxymethylcellulose (CMC)
[15] = dose: 30.0 mg/kg/injection, schedule: Q01DX Z (ip), vehicle: carboxymethylcellulose (CMC)
[16] = dose: 60.0 mg/kg/injection, schedule: Q01DX Z (ip), vehicle: carboxymethylcellulose (CMC)
[17] = dose: 120.0 mg/kg/injection, schedule: Q01DX Z (ip), vehicle: carboxymethylcellulose (CMC)
[18] = dose: 100.0 mg/kg/injection, schedule: Q01DX009 (ip), vehicle: Klucel (hydroxypropylcellulose) (HPC)
[19] = dose: 100.0 mg/kg/injection, schedule: Q04DX003 (ip), vehicle: Klucel (hydroxypropylcellulose) (HPC)
[20] = dose: 200.0 mg/kg/injection, schedule: Q01DX009 (ip), vehicle: Klucel (hydroxypropylcellulose) (HPC)
[21] = dose: 200.0 mg/kg/injection, schedule: Q04DX003 (ip), vehicle: Klucel (hydroxypropylcellulose) (HPC)
[22] = dose: 400.0 mg/kg/injection, schedule: Q01DX009 (ip), vehicle: Klucel (hydroxypropylcellulose) (HPC)
[23] = dose: 400.0 mg/kg/injection, schedule: Q04DX003 (ip), vehicle: Klucel (hydroxypropylcellulose) (HPC)

Measured: T/C

CCC(Br)C(=O)O (centres undefined)
inactive: [1] 96 % of control and 97 % of control | [2] 95 % of control | [3] 92 % of control | [4] 89 % of control and 91 % of control | dose: 100.0 mg/kg/injection, schedule: Q04DX002 (ip), vehicle: saline 101 % of control | [5] 100 % of control | [6] 96 % of control | dose: 200.0 mg/kg/injection, schedule: Q04DX002 (ip), vehicle: saline 105 % of control | [7] 90 % of control

Cn1c(=O)c2c(ncn2CC[n+]2cccc(C(N)=O)c2)n(C)c1=O
inactive: [5] 101 % of control | [7] 97 % of control

N#CCC(=O)O
inactive: dose: 18.75 mg/kg/injection, schedule: Q01DX009 (ip), vehicle: saline 98 % of control | dose: 37.5 mg/kg/injection, schedule: Q01DX009 (ip), vehicle: saline 95 % of control | dose: 75.0 mg/kg/injection, schedule: Q01DX009 (ip), vehicle: saline 90 % of control

O=[N+]([O-])c1ccc(-c2nc3c(o2)CCC3)cc1
inactive: [8] 98 % of control | [9] 105 % of control | [10] 96 % of control

CCCCCCCCCCCCCCCCP(=O)(OCCOCCCCCC)OCCOCCCCCC
inactive: dose: 12.5 mg/kg/injection, schedule: Q01DX009 (ip), vehicle: acetone 93 % of control | dose: 12.5 mg/kg/injection, schedule: Q04DX003 (ip), vehicle: acetone 95 % of control | dose: 25.0 mg/kg/injection, schedule: Q01DX009 (ip), vehicle: acetone 100 % of control | dose: 25.0 mg/kg/injection, schedule: Q04DX003 (ip), vehicle: acetone 109 % of control | dose: 50.0 mg/kg/injection, schedule: Q01DX009 (ip), vehicle: acetone 93 % of control | dose: 50.0 mg/kg/injection, schedule: Q04DX003 (ip), vehicle: acetone 106 % of control

C[C@]12C=CC(=O)C=C1CC[C@H]1[C@@H]3C[C@@H](O)[C@](O)(C(=O)CO)[C@@]3(C)C[C@H](O)[C@@]12F
inactive: dose: 50.0 mg/kg/injection, schedule: Q04DX003 (sc), vehicle: steriod suspending solution 102 % of control | dose: 100.0 mg/kg/injection, schedule: Q01DX001 (sc), vehicle: steriod suspending solution 105 % of control | dose: 100.0 mg/kg/injection, schedule: Q04DX003 (sc), vehicle: steriod suspending solution 97 % of control | dose: 200.0 mg/kg/injection, schedule: Q01DX001 (sc), vehicle: steriod suspending solution 107 % of control | dose: 200.0 mg/kg/injection, schedule: Q04DX003 (sc), vehicle: steriod suspending solution 106 % of control | dose: 400.0 mg/kg/injection, schedule: Q01DX001 (sc), vehicle: steriod suspending solution 105 % of control | dose: 400.0 mg/kg/injection, schedule: Q04DX003 (sc), vehicle: steriod suspending solution 110 % of control

COC(=O)C(CCC#N)(CCC#N)C(C)=O
inactive: [11] 96 % of control | [12] 91 % of control | [13] 89 % of control

NC(N)=N/N=C(\c1ccccc1)C(O)c1ccccc1 (centres undefined)
inactive: [14] 106 % of control | [15] 101 % of control | [16] 102 % of control | dose: 60.0 mg/kg/injection, schedule: Q01DX Z (oral), vehicle: carboxymethylcellulose (CMC) 96 % of control | [17] 98 % of control | dose: 120.0 mg/kg/injection, schedule: Q01DX Z (oral), vehicle: carboxymethylcellulose (CMC) 90 % of control | dose: 240.0 mg/kg/injection, schedule: Q01DX Z (oral), vehicle: carboxymethylcellulose (CMC) 90 % of control | dose: 480.0 mg/kg/injection, schedule: Q01DX Z (oral), vehicle: carboxymethylcellulose (CMC) 93 % of control

COC1CCC2(C)C(=CCC3C2CCC2(C)C(C(C)CCCC(C)C)CCC32)C1 (centres undefined)
inactive: [11] 97 % of control | [12] 94 % of control | [13] 94 % of control

CCOC(=O)COc1c(C)cccc1Cl
inactive: dose: 100.0 mg/kg/injection, schedule: Q04DX002 (ip), vehicle: saline with Tween-80 111 % of control | dose: 200.0 mg/kg/injection, schedule: Q04DX002 (ip), vehicle: saline with Tween-80 114 % of control

CC(=O)Oc1cccc(C#N)c1
inactive: [8] 98 % of control | [9] 107 % of control | [10] 98 % of control

COc1ccc(Cl)cc1NC(=O)CC(C)=O
inactive: [18] 101 % of control | [19] 97 % of control | [20] 101 % of control | [21] 99 % of control | [22] 95 % of control | [23] 94 % of control

CCCCCCCCCCCCCCCCNC(=S)N/N=C/C(C)=N/NC(=S)NCCCCCCCCCCCCCCCC
inactive: [14] 101 % of control | [15] 107 % of control | [16] 100 % of control and 104 % of control | [17] 95 % of control and 98 % of control | dose: 240.0 mg/kg/injection, schedule: Q01DX Z (ip), vehicle: carboxymethylcellulose (CMC) 100 % of control

Brc1ccc([I+]c2ccccc2)cc1
inactive: dose: 50.0 mg/kg/injection, schedule: Q01DX001 (ip), vehicle: saline 103 % of control | [3] 106 % of control | [6] 95 % of control

S=c1[nH]c2ccc(Cl)cc2[nH]1
inactive: dose: 25.0 mg/kg/injection, schedule: Q04DX003 (ip), vehicle: saline with Tween-80 100 % of control | dose: 50.0 mg/kg/injection, schedule: Q04DX003 (ip), vehicle: saline with Tween-80 98 % of control | [8] 100 % of control

C(=N\Nc1nc2ccccc2s1)/c1ccccc1
inactive: [18] 95 % of control | [20] 102 % of control | [22] 100 % of control

O=C(O)CCNC(=O)c1ccccc1
inactive: dose: 87.5 mg/kg/injection, schedule: Q04DX003 (ip), vehicle: saline 97 % of control | dose: 175.0 mg/kg/injection, schedule: Q04DX003 (ip), vehicle: saline 98 % of control | dose: 350.0 mg/kg/injection, schedule: Q04DX003 (ip), vehicle: saline 93 % of control

COc1ccc(N=Cc2c(O)ccc3ccccc23)cc1
inactive: [19] 107 % of control | [21] 98 % of control | [23] 102 % of control

COC(=O)CCCCC(=O)OC
inactive: dose: 100.0 mg/kg/injection, schedule: Q01DX009 (ip), vehicle: saline with Tween-80 103 % of control | dose: 200.0 mg/kg/injection, schedule: Q01DX009 (ip), vehicle: saline with Tween-80 102 % of control | dose: 400.0 mg/kg/injection, schedule: Q01DX009 (ip), vehicle: saline with Tween-80 102 % of control

Cc1cc([N+](=O)[O-])cc([N+](=O)[O-])c1OC(=O)c1ccc(N=C(N)N)cc1
inactive: dose: 25.0 mg/kg/injection, schedule: Q04DX003 (ip), vehicle: saline 103 % of control | [1] 102 % of control | [2] 97 % of control | [4] 94 % of control and 91 % of control | [5] 96 % of control and 92 % of control

CCc1ccccc1NC(=O)SCCSC(=O)Nc1ccccc1CC
inactive: dose: 25.0 mg/kg/injection, schedule: Q01DX009 (ip), vehicle: Klucel (hydroxypropylcellulose) (HPC) 91 % of control | dose: 50.0 mg/kg/injection, schedule: Q01DX009 (ip), vehicle: Klucel (hydroxypropylcellulose) (HPC) 102 % of control | [18] 96 % of control and 87 % of control | [22] 104 % of control

Nc1ccc2ccccc2c1S(=O)(=O)O
inactive: [8] 98 % of control | [9] 95 % of control | [10] 98 % of control

CCCCOP(=S)(Cc1ccccc1)OCCCC
inactive: [18] 104 % of control | [20] 104 % of control | [22] 104 % of control

O=c1c(Br)c(Cl)nc2ccccn12
inactive: [3] 95 % of control | [6] 96 % of control | dose: 400.0 mg/kg/injection, schedule: Q01DX001 (ip), vehicle: saline 93 % of control

CCCCCCC/C=C/c1c(C)[nH]c2ccccc2c1=O
inactive: [19] 96 % of control | [21] 93 % of control | [23] 89 % of control
